ChEMBL document CHEMBL1157299, “Alkaloids from Eschscholzia californica and their capacity to inhibit binding of [3H]8-Hydroxy-2-(di-N-propylamino)tetralin to 5-HT1A receptors in Vitro” (J Nat Prod, 2006)
The source made the active and inactive calls. The rule behind the calls is not given here. Where a SMILES comes first, the peptide text is derived from it. [ ]: non-standard residue; d: D form.

Key:
[1] = molecular target: T1, 5-hydroxytryptamine receptor 1A (Homo sapiens, UniProt P08908); experiment: (§1) Displacement of [3H]8-OH-DPAT from human recombinant 5HT1A receptor expressed in CHO cells; assay type: cell-based
T1 sequence (P08908 whole entry): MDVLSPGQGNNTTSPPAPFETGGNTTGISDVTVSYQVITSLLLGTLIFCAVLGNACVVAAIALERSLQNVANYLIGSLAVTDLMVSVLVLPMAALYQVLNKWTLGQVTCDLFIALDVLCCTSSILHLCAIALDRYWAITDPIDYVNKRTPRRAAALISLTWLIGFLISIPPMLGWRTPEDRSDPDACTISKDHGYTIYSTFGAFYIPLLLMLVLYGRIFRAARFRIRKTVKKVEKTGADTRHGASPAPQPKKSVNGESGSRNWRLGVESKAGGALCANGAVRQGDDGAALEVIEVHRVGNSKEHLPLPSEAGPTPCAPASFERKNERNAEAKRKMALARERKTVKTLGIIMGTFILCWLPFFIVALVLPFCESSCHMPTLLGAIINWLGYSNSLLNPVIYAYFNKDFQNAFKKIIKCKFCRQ

Substance-K receptor = molecular target: T2, Substance-K receptor (Homo sapiens, UniProt P21452); experiment: Displacement of [3H]SR48968 from human recombinant NK2 receptor expressed in CHO cells; assay type: cell-based
T2 sequence (P21452 whole entry): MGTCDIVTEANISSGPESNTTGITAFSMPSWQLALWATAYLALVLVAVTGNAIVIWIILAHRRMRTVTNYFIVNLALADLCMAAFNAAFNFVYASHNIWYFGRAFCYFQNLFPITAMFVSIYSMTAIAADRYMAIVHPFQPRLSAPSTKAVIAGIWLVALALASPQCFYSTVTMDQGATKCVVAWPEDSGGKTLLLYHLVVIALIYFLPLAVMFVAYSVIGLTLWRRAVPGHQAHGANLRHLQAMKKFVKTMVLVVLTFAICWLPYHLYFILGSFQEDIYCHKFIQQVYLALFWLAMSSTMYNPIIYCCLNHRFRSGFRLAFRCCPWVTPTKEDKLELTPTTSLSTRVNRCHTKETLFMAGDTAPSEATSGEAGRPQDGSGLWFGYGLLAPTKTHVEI

Substance-P receptor = Substance-P receptor (Homo sapiens, UniProt P25103); experiment: Displacement of [3H]SR140333 from human recombinant NK1 receptor expressed in CHO cells; assay type: cell-based
[2] = molecular target: T3, 5-hydroxytryptamine receptor 1A (Homo sapiens) (UniProt P08908); experiment: as §1; assay type: cell-based
T3 sequence (whole entry): T1 sequence (P08908 whole entry)

Cytochrome P450 3A4 = Cytochrome P450 3A4 (Homo sapiens, UniProt P08684)
Sequence of Cytochrome P450 3A4 (P08684 whole entry): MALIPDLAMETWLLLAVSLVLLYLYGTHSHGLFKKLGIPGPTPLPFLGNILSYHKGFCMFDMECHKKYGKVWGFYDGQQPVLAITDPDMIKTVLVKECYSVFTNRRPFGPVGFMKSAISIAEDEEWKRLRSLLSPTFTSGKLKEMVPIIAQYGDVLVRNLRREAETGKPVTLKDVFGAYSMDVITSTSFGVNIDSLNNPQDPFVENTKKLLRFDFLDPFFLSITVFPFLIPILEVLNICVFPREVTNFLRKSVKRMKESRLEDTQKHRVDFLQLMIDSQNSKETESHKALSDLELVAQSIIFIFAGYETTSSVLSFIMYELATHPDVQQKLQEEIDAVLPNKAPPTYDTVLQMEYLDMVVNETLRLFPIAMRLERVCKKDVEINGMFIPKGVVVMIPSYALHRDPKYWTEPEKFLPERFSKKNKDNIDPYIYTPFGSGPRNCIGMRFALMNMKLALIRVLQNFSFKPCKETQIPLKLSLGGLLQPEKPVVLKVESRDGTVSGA

Sequence of Substance-P receptor (P25103 whole entry): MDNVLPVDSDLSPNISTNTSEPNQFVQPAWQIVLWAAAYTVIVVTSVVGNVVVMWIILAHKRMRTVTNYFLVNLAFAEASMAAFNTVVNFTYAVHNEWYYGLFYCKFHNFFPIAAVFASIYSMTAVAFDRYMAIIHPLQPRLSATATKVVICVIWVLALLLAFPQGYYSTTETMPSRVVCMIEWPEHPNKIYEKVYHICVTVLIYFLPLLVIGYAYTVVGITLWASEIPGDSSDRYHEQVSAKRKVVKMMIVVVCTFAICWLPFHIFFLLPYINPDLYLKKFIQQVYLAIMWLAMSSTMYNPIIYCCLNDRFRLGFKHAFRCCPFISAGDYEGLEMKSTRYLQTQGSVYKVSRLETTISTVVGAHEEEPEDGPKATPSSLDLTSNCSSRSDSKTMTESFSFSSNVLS

COc1cc2c(cc1O)C[C@H]1c3c(cc(OC)c(OC)c3-2)CCN1C
EC50 [1]: 0.16 µM
Ki [1]: 0.085 µM

CC(C)[C@H](NC(=O)[C@@H](Cc1c[nH]c2ccccc12)NC(=O)[C@H](Cc1ccc(O)cc1)NC(=O)[C@@H](N)CC(=O)O)C(=O)N[C@H](Cc1c[nH]c2ccccc12)C(=O)N[C@H](Cc1c[nH]c2ccccc12)C(=O)N[C@@H](CCCCN)C(N)=O (H-DY[dW]V[dW][dW]K-NH2)
EC50 (Substance-K receptor): 0.0781 µM

Ic1ccccc1CN[C@@H]1C2CCN(CC2)[C@@H]1C(c1ccccc1)c1ccccc1 (relative stereo)
EC50 (Substance-P receptor): 0.0244 µM

C[N+]1(C)[C@H]2Cc3cc4c(cc3[C@@H]1Cc1cc3c(cc12)COC3)OCO4 [CALIFORNIDINE]
EC50 [1]: > 100 µM
Activity [2]: inactive
IC50 (Cytochrome P450 3A4): > 80 µM

COc1cc2c(cc1O)[C@@H]1Cc3cc4c(cc3[C@H](C2)N1C)OCO4 [CARYACHINE]
EC50 [1]: 9 µM
Activity [2]: 5 µM

CN1[C@H]2Cc3cc4c(cc3[C@@H]1Cc1cc3c(cc12)OCO3)OCO4 [ESCHOLTZINE]
EC50 [1]: 11 µM
Ki [1]: 6 µM

COc1cc(-c2oc3cc(O)cc(O)c3c(=O)c2O[C@@H]2O[C@H](CO[C@@H]3O[C@@H](C)[C@H](O)[C@@H](O)[C@H]3O)[C@@H](O)[C@H](O)[C@H]2O)ccc1O [NARCISSIN]
IC50 (Cytochrome P450 3A4): > 80 µM

CN1CCc2cc3c(cc2C(=O)Cc2ccc4c(c2C1)OCO4)OCO3 [PROTOPINE]
EC50 [1]: > 100 µM
IC50 (Cytochrome P450 3A4): > 80 µM

O=c1c(O)c(-c2ccc(O)c(O)c2)oc2cc(O)cc(O)c12 [QUERCETIN]
EC50 [1]: > 100 µM
Activity [2]: inactive
